Results reported in US6878742B2, “Heterocyclic sulfonamide inhibitors of beta amyloid production” (Wyeth, priority 2000, dated 2005).

Tested on: amyloid precursor protein (APP) proteolysis
Experiment: Repressor Release Assay (RRA)
Format: cell-based
Details: Conc 1 μg/mL; luciferase activity over diluent control
Experimental: The beta amyloid inhibitory activity of many of the compounds of the present invention has been determined using the Repressor Release Assay (RRA). See, Table 23 below. A compound is considered active in RRA if it leads to at least a 1.5 fold increase in luciferase activity at 20 μM and is non-toxic.
The compounds generated as described in Examples 1 through 220 were tested in the RRA in accordance with published techniques [Shuey, D. J., Sheiffele, P., Jones, D., Cockett, M. I., and Quinet, E. M. (1999), “Repressor release: a useful tool for monitoring amyloid precursor protein (APP) proteolysis in mammalian cells”, Society for Neuroscience Abstracts, Vol. 25, 29th Annual Meeting of Society for Neuroscience, Miami Beach, Fla., Oct. 23-28, 1999]. Briefly, this assay is performed as follows.
CHO-K1 cells are cultured in whole DMEM media (DMEM—High Glucose with 10% fetal bovine serum, 1% Non-essential Amino Acids, and 1% Penicillin-Streptomycin) at 37° C. with 5% CO2. Two million cells are plated into 10-cm dishes 24 hrs prior to transfection.
Transient transfections are completed as recommended by Gibco BRL using their Lipofectamine Plus system. First, 6 μg of pRSVO-luc and 6 μg of APP-lacI construct DNA are added to 460 μL Opti-Mem transfection media and incubated with 30 μL Plus reagent for 15 minutes. Then, a lipid mixture of 40 μL Lipofectamine reagent and 460 μL Opti-Mem transfection media is incubated with the DNA-Plus reagent mixture for 15 minutes. During the DNA-lipid incubation, the CHO-K1 cells are washed once and covered in 5.0 mL DMEM media without Penicillin-Streptomycin. The DNA-lipid preparation is then layered onto these cells and incubated at 37° C. overnight.
One and one half million transfected cells per well (100 μL total volume) are plated into sterile, opaque Packard 96-well Cultur-Plates in clear DMEM whole media (DMEM—without phenol red) and incubated at 37° C. with 5% CO2 for 3-5 hours.
Compounds are diluted using two different protocols; one protocol is used for compounds supplied neat (weighed powder in vial) and the other protocol is used for compounds supplied in solution (20 mM in DMSO in 96-well plates). For both protocols, 25 mM Hepes and 25 mM Hepes/1% DMSO are prepared fresh to be used as diluent. The Hepes/DMSO is used as the diluent control on all experimental plates.
The following table depicts the steps for compound dilution (please note that the last step is the addition of compound to cells/media in tissue culture plate):
Because some compounds arrive in 96-well format at 20 mM, the following represents the protocol for their dilution (note that an average molecular weight of these compounds was used to calculate these dilutions and as above, the last step is the addition of compound to cells/media in tissue culture plate):
Once compounds are diluted, they are applied in duplicate on cells in tissue culture plates (prepared above). Cells are incubated with compound at 37° C. with 5% CO2 for an additional 36-48 hours.
Luciferase assays (LucLite reagent, Packard) are performed and are read on a Packard TopCount instrument. Media is removed from each 96-well plate and replaced with 100 μL PBS per well (with Mg^2+ and Ca^2+). An equal volume (100 μL) of the LucLite lysis/substrate buffer is added to each well and the plates are sealed and mixed in the dark on a rotary shaker for 15-30 minutes at room temperature. Luciferase readings are then taken on the TopCount instrument. Measurements are expressed as relative light units (RLU) and are calculated and analyzed in MS Excel as follows.
A compound is considered active in RRA if it leads to at least a 1.5 fold increase in luciferase activity at 20 μM and is non-toxic, as determined by loss of signal (≦0.75 fold increase). Fold increase is the amount of luciferase activity (measured in relative light units) over diluent control. SEM represents the standard error of the mean for fold increase (not shown).

SMILES	APPI Fold Increase
O=S(=O)(NC(CO)C1CCCCC1)c1ccc(Br)s1 (stereo not shown) [Example 13]	2.17 fold

Same assay, conditions: Conc 3 μg/mL; luciferase activity over diluent control

SMILES	APPI Fold Increase
O=S(=O)(NC(CO)C1CCCCC1)c1ccc(Br)s1 (stereo not shown) [Example 13]	4.02 fold

Same assay, conditions: Conc 10 μg/mL; luciferase activity over diluent control

SMILES	APPI Fold Increase
O=S(=O)(NC(CO)C1CCCCC1)c1ccc(Br)s1 (stereo not shown) [Example 13]	3.94 fold

Same assay, conditions: Conc 10 μg/mL; luciferase activity over diluent control; read-out: APPI Fold Increase

SMILES	fold induction at 10 µg/mL
C=CCCC(O)[C@@H](NS(=O)(=O)c1cccs1)[C@@H](C)CC (stereo partly drawn) [Example 151, N-{(S)-2-hydroxy-1-[(S)-1-methylpropyl]hex-5-enyl}thiophene-2-sulfonamide]	1.94
C=CC(O)[C@@H](NS(=O)(=O)c1ccc(Cl)s1)[C@@H](C)CC (stereo partly drawn) [Example 127, 5-chloro-N-{(S)-2-hydroxy-1-[(S)-1-methylpropyl]but-3-enyl}thiophene-2-sulfonamide]	4.27
CC[C@H](C)[C@H](NS(=O)(=O)c1cccs1)C(O)c1ccc(SC)cc1 (stereo partly drawn) [Example 153, N-((S,S)-1-{hydroxy[4-(methylthio)phenyl]methyl}-2-methylbutyl)thiophene-2-sulfonamide]	2.09

Same assay, conditions: Conc 20 μg/mL; luciferase activity over diluent control; read-out: APPI Fold Increase

SMILES	fold induction at 20 µg/mL
O=S(=O)(N[C@H](CO)C1CCC(N2CCOCC2)CC1)c1ccc(Cl)s1 (stereo partly drawn) [Example 217, 5-chloro-N-[(S)-2-hydroxy-1-(4-morpholinocyclohexyl)ethyl]thiophene-2-sulfonamide]	1.8
O=S(=O)(N[C@H](CO)c1ccccc1)c1ccc(Br)s1 [Example 104, 5-bromo-N-[(S)-2-hydroxy-1-phenylethyl]thiophene-2-sulfonamide]	2.5
O=S(=O)(N[C@H](CO)C1CCC(NCc2ccccc2)CC1)c1ccc(Cl)s1 (stereo partly drawn) [Example 211, 5-Chloro-N-[(S)-2-hydroxy-1-(4-benzylaminocyclohexyl)ethyl]thiophene-2-sulfonamide]	1.9
O=S(=O)(NC1(CO)CC2CCC1C2)c1ccc(Br)s1 (stereo not shown) [Example 182, 5-bromo-N-[2-(hydroxymethyl)bicyclo[2.2.1]hept-2-yl]thiophene-2-sulfonamide]	4.2
CC(=O)N1CCC(CO)(NS(=O)(=O)c2ccc(Cl)s2)CC1 [Example 203, N-[1-Acetyl-4-(hydroxymethyl)piperidin-4-yl]-5-chlorothiophene-2-sulfonamide]	1.5
O=S(=O)(N[C@H](CO)C1CCC(O)CC1)c1ccc(Cl)s1 (stereo partly drawn) [Example 199A, 5-Chloro-N-[(S)-2-hydroxy-1-(4-hydroxycyclohexyl)ethyl]thiophene-2-sulfonamide]	2.4
CC(C)C[C@@H](c1ccccc1)[C@@H](CO)NS(=O)(=O)c1ccc(Cl)s1 [Example 47, 5-chloro-N-[(1S,2S)-1-(hydroxymethyl)-4-methyl-2-phenylpentyl]thiophene-2-sulfonamide]	5.4
COC1CCC([C@@H](CO)NS(=O)(=O)c2ccc(Cl)s2)CC1 (stereo partly drawn) [Example 199, 5-Chloro-N-[(S)-2-hydroxy-1-(4-methoxycyclohexyl)ethyl]thiophene-2-sulfonamide]	2.8
CCC(CC)[C@@H](CO)NS(=O)(=O)c1ccc(F)s1 [Example 227, N-[(S)-2-Ethyl-1-(hydroxymethyl)butyl]-5-fluorothiophene-2-sulfonamide]	26.3
CC[C@@H](CO)NS(=O)(=O)c1ccc(Cl)s1 [Example 100, 5-chloro-N-[(S)-1-(hydroxymethyl)propyl]thiophene-2-sulfonamide]	1.5
CC[C@H](C)[C@H](NS(=O)(=O)c1ccc(Cl)s1)[C@@H](O)C1C=CCCC1 (stereo partly drawn) [Example 155, 5-Chloro-N-{(S,S)-1-[(S)-cyclohex-2-en-1-yl(hydroxy)methyl]-2-methylbutyl}thiophene-2-sulfonamide]	4.2
CC[C@H](C)[C@@H](CO)N(CCOc1ccccc1)S(=O)(=O)c1ccc(Cl)s1 [Example 87, 5-Chloro-N-[(1S,2S)-1-(hydroxymethyl)-2-methylbutyl]-N-(2-phenoxyethyl)thiophene-2-sulfonamide]	3.1
CCC(CC)[C@@H](CO)NS(=O)(=O)c1ccc(Br)s1 [Example 58, 5-bromo-N-[(1S)-2-ethyl-1-(hydroxymethyl)butyl]thiophene-2-sulfonamide]	10
